Test results reported in patent US7008937B2, “Porphyrins and metalloporphyrins for inhibiting heme iron uptake” (Frontier Scientific, Inc., priority 2003, dated 2006).
Read-outs that look alike come from different tables or passages of the source.

How the values were obtained:
[1] = 50 micromolar in duodenal loop, 15 minutes
Description: Subsequently, cardiac punctures were performed on the rats, and between 0.45 and 1.3 ml of blood were collected from each. The plasma of the blood samples was separated and precipitated overnight with 10% trichloroacetic acid.

[2] = test system: IEC-6 cells
[3] = test system: IEC-6 cells; test: Inhibition of in vitro uptake of radiolabeled iron from heme in IEC-6 cells
Description: In a first assay, confluent monolayers of IEC-6 cells were incubated with radioactive iron-labeled heme. […] In this assay, the heme had been previously solubilized in taurodeoxycholate micelles. Twelve-well tissue culture plates were used with 1 ml of phosphate-buffered saline (or “PBS”) containing Ca, Mg and glucose. Cells were incubated with the heme solution and a designated inhibitor for times indicated at a temperature of 37° C.
After incubation, the cells were washed with 1 ml of the same buffer at 4° C. three times. The cells were then solubilized by the addition of 1 ml of water and sonicated for 10 minutes in a Branson sonicator. The cells were removed by titration and transferred to 75 ml tubes. Subsequently, the radioactivity of the cells was determined using a gamma counter.
For an initial screen, each compound was added at a concentration of 800 micromolar, and given a timed uptake period of over 60 minutes. […] The concentration of inhibitor required to get a 50% decrease in heme uptake inhibition counts was then determined.

[4] = test system: K562 cells
Text: In a next set of experiments, K562 cells were used to test toxicity of the porphyrins of the invention. K562 cells are erythroleukemia cells from a cell line derived from a chronic myeloid leukemia patient in blast crisis. K562 cells were selected for this testing based on their ability to grow in suspension. This characteristic renders cell counting more reliable.

[5] = test system: rat duodenum; details: for inhibition of incorporation of radiolabeled heme into the animals: 4 animals (FIG. 8)
Text: In this assay, Wistar rats were first anesthetized with pentobarbital. Wistar rats are from a strain originally developed at the Wistar Institute and commonly used all over the world for research. Following anesthesia, a midline incision was made in each of the rats. The duodenum of each animal was isolated between the pylorus and the ligament of Trietz by umbilical tape. The bile duct of each animal was then identified and ligated. Following this, a syringe was passed through the pylorus of each animal, and one ml of radiolabeled heme solution was introduced into the duodenum. The heme solutions used contained either only heme, or additionally included an appropriate concentration of an inhibitor to be evaluated.
Following introduction of the heme or heme/inhibitor solution, the duodenal loop of each animal was tied off. Heme absorption was allowed to continue for a period of 10 minutes. Following this absorption period, the duodenal loop of each rat was removed and the animal was killed. The rat carcass was counted in a whole body counter to determine the amount of radiolabeled heme isotope absorbed into the body from the duodenum.
The Wistar rats were divided into three groups of 4 animals each. Group 1 was used as a control group.
In this experiment, 5 animals were utilized in each of the control and testing groups. The incubation time period was extended to be fifteen minutes. […] The points seen in FIG. 9 represent the measurements obtained individual rats, while the shaded bars represent the mean value for each group of animals.

[6] = 800 μM
Description: TMP (free base porphyrin) was used at 160 and 800 μM concentrations in the taurodeoxycholate-solubilized heme solution.

[7] = one of two cell lines (summary)
[8] = read-out: concentration giving about 50% inhibition of heme iron uptake, titration with increasing amounts of inhibitor, uptake determined after 30 minutes

For `C[n+]1ccc(-c2c3nc(c(-c4cc[n+](C)cc4)c4ccc([n-]4)c(-c4cc[n+](C)cc4)c4nc(c(-c5cc[n+](C)cc5)c5ccc2[n-]5)C=C4)C=C3)cc1.[Cr+3]` [Cr-TMP, Cr (III) meso-tetra(N-methyl-4-pyridyl) porphine], the “absorption across the intestinal wall” value [1] was “essentially no absorption”, the “plasma level, bounded by limit of sensitivity of the measurement” value [1] was less than 40 nM and the “difference in plasma absorbance between control and treated groups” value ([1]; 447 nm) was “no difference”. The “growth rate or extent” value ([2]; 50 μM, up to 7 days' exposure (FIG. 11)) was “no decrease in growth rate or extent”, the “concentration up to which no toxicity was observed” value ([2]; day 4 (FIG. 12)) was “about 100 μM” and the “toxicity at a high concentration relative to contemplated therapeutic dosage” value [2, 7] was “no toxicity”. The “concentration range in which active as inhibitor” value [3] was “low micromolar range”, the “toxicity to the cell monolayer under the inverted microscope” value ([3]; 800 μM, 60 minutes) was “No toxicity to the cell monolayer was observed” and the “inhibition of heme iron uptake, timed uptake” value ([3]; 800 μM, over 60 minutes, 37 degrees (FIG. 3)) was “inhibition to approximately background”. The “inhibitory ability compared with the free base porphyrin” value ([3]; metal chelates of TMP) was “effective to still another order of magnitude”, the IC50 [3, 8] was roughly 4 µM and the “growth rate of the cells” value ([4]; 50 micromolar in growth media (FIG. 10)) was “not decreased”. For the same molecule, the “cell growth at higher concentrations” value ([4]; concentrations above 50 micromolar, growth slowed, cells remained viable) was “Some inhibition of cell growth”, the “toxicity at a high concentration relative to contemplated therapeutic dosage” value [4, 7] was “no toxicity” and the “toxicity after prolonged exposure” value ([4]; two weeks of exposure) was “No toxicity”. The “inhibition of incorporation of radiolabeled heme into the animals” value ([5]; 50 μM, 10 minutes) was “almost complete inhibition”, the “inhibition of incorporation of radiolabeled heme into the animals” value ([5]; 200 μM, 10 minutes) was “almost complete inhibition” and the “in vivo inhibition of heme-iron uptake (conclusion)” value ([5]; about 50 μM, 15 minutes (FIG. 9)) was “feasible in vivo”.

In the case of `C[n+]1ccc(-c2c3nc(c(-c4cc[n+](C)cc4)c4ccc([nH]4)c(-c4cc[n+](C)cc4)c4nc(c(-c5cc[n+](C)cc5)c5ccc2[nH]5)C=C4)C=C3)cc1` [TMP, meso-tetra(N-methyl-4-pyridyl) porphine], the “precipitation in the heme solution” value [6] is reported as “slight precipitate”, the IC50 ([3]; read-out: concentration at which heme uptake is inhibited (as seen in FIGS. 2 and 4), summary of Tables 1 and 2) is reported as roughly 750 µM and the IC50 [3, 8] is reported as roughly 100 µM. For the same molecule, the “variation of inhibition in the group of animals” value ([5]; 800 μM, 10 minutes) was “considerable variation in inhibition” and the “inhibition of incorporation of iron from heme into the body of the animal” value ([5]; 160 and 800 μM in heme solution, 10 minutes (FIG. 7)) was “inhibition of iron uptake was observed”.
